Experimental data published in patent publication US7479277B2, “Method for reducing intraocular pressure using integrin-linked kinase inhibitor” (Wisconsin Alumni Research Foundation, priority 2005, dated 2009).

Tested on: cultured human trabecular meshwork (HTM) cells
Assay: HTM cell spreading on fibronectin III7-10 coated coverslips, immunofluorescence microscopy
Assay type: cell-based
Method: A cultured human trabecular meshwork (HTM) diploid cell strain obtained from trabecular meshwork explants was serum-starved for twenty-four hours and then plated on 12 mm round glass coverslips (Bellco Glass, Inc.; Vineland, N.J.) coated with III7-10 domains of fibronectin (RGD cell-binding domain; 236 nM) for three hours at 37° C., 95% humidity, 5% CO2, ambient air. The cells were exposed to either DMSO (control) or an ILK inhibitor with or without 472 nM of the Hep II domain. Following incubation, cells were fixed for immunofluorescence microscopy by methods known to a skilled artisan.
HTM cells were examined by immunofluorescence microscopy using anti-vinculin (1:3000; Sigma-Aldrich; St. Louis, Mo.), anti-ILK (1:1000; Upstate Group, LLC; Charlottesville, Va.), anti-talin (1:1000; Chemicon; Temecula, Calif.), anti-paxillin (1:1000; BD Biosciences; San Jose, Calif.) or anti-FAK (1:1000; BD Biosciences) antibodies to reveal actin stress fibers and focal adhesions. […] Cell images were acquired with a Zeiss AxioCam HRm camera mounted on a Zeiss Axiophan 2 Imaging fluorescence microscope together with AxioVision v.3.1 software. The percentage of spread cells was determined by counting polygonal cells containing stress fibers (spread cells) versus rounded cells lacking stress fibers (non-spread cells) from eight to twelve fields.

`O=c1cc(N2CCOCC2)oc2c(-c3ccccc3)cccc12` [LY29400] was tested, and the “percentage of spread cells” value (LY29400 25 μM added to ILK inhibitor plus soluble Hep II domain 472 nM, p<0.008) was 28% and the “percentage of spread cells” value (administered alone, compared to control cells, p<0.2) was 35%.
